Reference: patent US11060087B2, “Synthetic promoters for high throughput screening and gene modulation” (The Regents of the University of California, priority 2016, dated 2021)

B1: BL-3: LAMC2 synthetic promoter generated from the endogenous promoter of LAMC2 (LamS1, SEQ ID NO: 10/11) (nucleic acid, listed as Homo sapiens)
DNA 1: CGGGCCAGGTGTGCGCCCTCCTCGCTGCGAGGGGGAGCGGGCGGCTGCGGGGAGCGATTTTCCAGCCCGGTTTGTGCTCTGTGTGTTTGTCTGCCTCTGGAGGGCTGGGTCCTCCTTATTCACAGGTGAGTCACACCCTGAAACACAGGCTCTCTTCCTGTCAGGACTGAGTCAGGTAGAAGAGTCGTGCGCCCTCCTCGCTGCGAGGGGGAGCGGGCGGCTGCGGGGAGCGATTTTCCAGCCCGGTTTGTGCTCTGTGTGTTTGTCTGCCTCTGGAGGGCTGGGTCCTCCTTATTCACAGGTGAGTCACACCCTGAAACACAGGCTCTCTTCCTGTCAGGACTGAGTCAGGTAGAAGAGTCGTGCGCCCTCCTCGCTGCGAGGGGGAGCGGGCGGCTGCGGGGAGCGATTTTCCAGCCCGGTTTGTGCTCTGTGTGTTTGTCTGCCTCTGGAGGGCTGGGTCCTCCTTATTCACAGGTGAGTCACACCCTGAAACACAGGCTCTCTTCCTGTCAGGACTGAGTCAGGTAGAAGAGTCAAGCTTATAAAACCACCTGATCAAGGAAAAGGAAGGCACAGCGGAGCGCAGAGTGAGAACCACCAACCGGAATTC
DNA 2: CGGTCGGGCCAGGTGTGCGCCCTCCTCGCTGCGAGGGGGAGCGGGCGGCTGCGGGGAGCGATTTTCCAGCCCGGTTTGTGCTCTGTGTGTTTGTCTGCCTCTGGAGGGCTGGGTCCTCCTTATTCACAGGTGAGTCACACCCTGAAACACAGGCTCTCTTCCTGTCAGGACTGAGTCAGGTAGAAGAGTCGTGCGCCCTCCTCGCTGCGAGGGGGAGCGGGCGGCTGCGGGGAGCGATTTTCCAGCCCGGTTTGTGCTCTGTGTGTTTGTCTGCCTCTGGAGGGCTGGGTCCTCCTTATTCACAGGTGAGTCACACCCTGAAACACAGGCTCTCTTCCTGTCAGGACTGAGTCAGGTAGAAGAGTCGTGCGCCCTCCTCGCTGCGAGGGGGAGCGGGCGGCTGCGGGGAGCGATTTTCCAGCCCGGTTTGTGCTCTGTGTGTTTGTCTGCCTCTGGAGGGCTGGGTCCTCCTTATTCACAGGTGAGTCACACCCTGAAACACAGGCTCTCTTCCTGTCAGGACTGAGTCAGGTAGAAGAGTCAAGCTTATAAAACCACCTGATCAAGGAAAAGGAAGGCACAGCGGAGCGCAGAGTGAGAACCACCAACCG

Assays:
islet neoplasia (INeo) = assay: Potentiation of the INeo response to somatostatin analogues; settings: preliminary data
Source text: The following are key findings in this field: 1.

BIRC5 = assay: High-throughput screening of FDA-approved drug library, BIRC5 synthetic promoter-driven luciferase; type: cell-based, human; settings: BIRC5SP-Luc2-Puro MiaPaca2 cells, 48 hours after drug administration, Bright-Glo / CellTiter-Glo
Source text: Differentially over-expressed BIRC5 was validated using RT-PCR in rPDAC versus matching non-tumor pancreas (FIG. 8A), as well as western blot assay of ATCC™ PDAC cell lines (FIG. 8B). These preliminary data support the WGCNA that BIRC5 is an actionable gene (AG) for rPDAC. A powerful synthetic promoter for BIRC5, BIRC5-SP (BL-2), was generated (FIG. 8C) and used for BIRC5^SP-Luc2-Puro stable transfection into MiaPaca2 cells, which in turn were used for high-throughput small molecule screening (HTS) of the FDA-approved drug library. BIRC5^SP-Luc2-Puro PDAC cells were plated on 384-well plates and 2100 FDA-approved drugs were applied to cells with a pin plate automatic system. Luciferase expression was measured in a plate reader 48 hours after drug administration using Bright-Glo™. Cell viability of treated cells was measured using CellTiter-Glo™. BIRC5-luciferase signal read outs were normalized using cell viability measurements. Inhibitory drugs include daunorubicin and paclitaxel (Kusukawa N, Ishida H, Tanase K, Ito H, Aoki Y, Ooyama N, et al. [Successful treatment with docetaxel and prednisolone for paxlitaxel and carboplatin-resistant prostate cancer]. Hinyokika kiyo Acta urologica Japonica. 2013; 59(5):301-4. PubMed PMID: 23719139), as well as other novel rPDAC drugs such as bergenin, simvastatin, fluvastatin (Garwood E R, Kumar A S, Baehner F L, Moore D H, Au A, Hylton N, et al. Fluvastatin reduces proliferation and increases apoptosis in women with high grade breast cancer. Breast cancer research and treatment. 2010; 119(1):137-44. doi: 10.1007/s10549-009-0507-x. PubMed PMID: 19728082; PubMed Central PMCID: PMC4087110; Bocci G, Fioravanti A, Orlandi P, Bernardini N, Collecchi P, Del Tacca M, et al. Fluvastatin synergistically enhances the antiproliferative effect of gemcitabine in human pancreatic cancer MIAPaCa-2 cells. British journal of cancer. 2005; 93(3):319-30. doi: 10.1038/sj.bjc.6602720. […]

[1] = system: pancreatic ductal adenocarcinoma cells (PANC-1, MIA PaPc2, AsPc-1, and Capan-2); assay: LAMC2 synthetic promoter luciferase reporter assay in PDAC cell lines; type: cell-based, human
Source text: FIG. 22 is a graph showing the relative luciferase activity of various synthetic LAMC2 promoters (i.e. LamS1, Lams1E4T, Lams2E4T, and Lams3E4T) and CMV in various cell lines, in accordance with one or more embodiments of the invention.
(§1) FIG. 23 is a graph showing the relative luciferase activity of an endogenous LAMC2 promoter (LAMC2-EP-Luc), a synthetic LAMC2 promoter (LAMC2-SP-Luc), and CMV in various cell lines, in accordance with one or more embodiments of the invention.
LAMC2 is a key oncologic regulator of apoptosis that is also over-expressed in most cancers, including pancreatic cancer, but not in normal cells. In one aspect of the invention, a LAMC2 synthetic promoter (BL-3) generated from the endogenous promoter of LAMC2 is provided that is 1000× more powerful than the endogenous promoter and also more powerful than the cytomegalovirus (CMV) promoter in stimulating gene expression. The promoter competes with the CMV promoter, which is non-specific for cancer. The BL-3 synthetic promoter is more highly specific for cancer, especially pancreatic cancer, since it is not expressed in normal cells, including islets of Langerhans, and therefore is less toxic. The technique to generate the LAMC2 synthetic promoter (BL-3) and its uses are similar to U.S. patent application Ser. No. 14/396,967, which describes a synthetic BL-1 promoter for the insulin gene. However, the synthetic BL-1 promoter is expressed in islets of Langerhans, which therefore can lead to […] and diabetes as a toxic effect.

[2] = system: human primary pancreatic epithelial cells (HPPE); assay: LAMC2 synthetic promoter luciferase reporter assay in normal cells; type: cell-based; settings: HPPE and human pancreatic duct epithelial cells (FIG. 23)
Source text: as §1

| Molecule | effect on the INeo response to SAs (islet neoplasia (INeo)) | effect on BIRC5-luciferase signal normalized using cell viability (BIRC5) | other results |
| --- | --- | --- | --- |
| C[C@H](N)COC(=O)[C@H](CCCCN)NC(=O)Cc1c(-c2ccc3ccccc3c2)[nH]c2c1ccc1ccccc12 [SSTR5 small molecule agonist] | potentiates the INeo response to SAs |  |  |
| COc1c(O)cc2c(c1O)[C@@H]1O[C@H](CO)[C@@H](O)[C@H](O)[C@H]1OC2=O [bergenin] |  | Inhibitory |  |
| COc1cccc2c1C(=O)c1c(O)c3c(c(O)c1C2=O)C[C@@](O)(C(C)=O)C[C@@H]3O[C@H]1C[C@H](N)[C@H](O)[C@H](C)O1 [daunorubicin] |  | Inhibitory |  |
| CN(C)C(=N)N=C(N)N [metformin] | potentiate the INeo response to SAs |  |  |
| CC(=O)O[C@H]1C(=O)[C@@]2(C)[C@H]([C@H](OC(=O)c3ccccc3)[C@]3(O)C[C@H](OC(=O)[C@H](O)[C@@H](NC(=O)c4ccccc4)c4ccccc4)C(C)=C1C3(C)C)[C@]1(OC(C)=O)CO[C@@H]1C[C@@H]2O [paclitaxel] |  | Inhibitory |  |
| B1 |  |  | more powerful than the endogenous promoter in stimulating gene expression ([1]; LAMC2 synthetic promoter vs endogenous LAMC2 promoter): 1000 ×; relative luciferase activity in comparison to endogenous LAMC2 promoter and CMV promoter ([1]; PANC-1, MIA PaPc2, AsPc-1, Capan-2 (FIG. 23)): greatest amount of activity; relative luciferase activity among synthetic LAMC2 promoters and CMV ([1]; various cell lines (FIG. 22)): greatest amount of luciferase activity; relative luciferase activity in normal pancreatic cells [2]: no activity |
